The target in assay [1] is T1, PDE4B2 (Homo sapiens, UniProt Q07343). Description: 5FOA growth assay in fission yeast strain expressing PDE4B2. It counts as cell-based. Details: targets used in the assays are full-length proteins (as opposed to simply the catalytic domain); expressed in transfected cells; host or cells: Schizosaccharomyces pombe. Conditions: OD600 0.6. The procedure:
Cells were pregrown in EMM medium [MP Biomedicals (Solon, Ohio), 3% glucose, filter-sterilized to avoid carmelization, which would introduce variability into the optical density of the medium] containing from 0 mM to 2.5 mM cAMP (or either 0.5 mM or 1.0 mM cGMP). This was to repress expression of the fbp1-ura4 reporter prior to exposure of cells to 5FOA medium. Cells were grown at 30° C. to exponential phase (approximately 10^7 cells/ml). […] Starting cell concentrations ranged from 0.5×10^5 to 4×10^5 cells/ml depending on the screening strain. […] Other positive control dishes contained 5 mM cAMP in the 5FOA medium for PDEs that lack appropriate control compounds. Cultures were grown for 48 hours at 30° C., sealed in an airtight container with moist paper towels to prevent evaporation. Optical densities (OD600) of cultures were measured using a microplate reader. Bioinformatic analysis of the results to determine composite Z scores was performed as previously described (1, 3).

In assay [2] the target is PDE7B (Homo sapiens, UniProt Q9NP56). Put plainly: 5FOA growth assay in fission yeast strain expressing PDE7B. It counts as cell-based. Details: targets used in the assays are full-length proteins (as opposed to simply the catalytic domain); expressed in transfected cells; host or cells: Schizosaccharomyces pombe. Conditions: OD600 0.6; read-out: ED50 for 5FOA growth assays, PDE7B. The method, then:
PDE inhibition allows growth in 5FOA medium as measured by optical density after 48 hours incubation at 30° C. Compound BC12 and six structural analogs were tested for growth stimulation.
Cells were pregrown in EMM medium [MP Biomedicals (Solon, Ohio), 3% glucose, filter-sterilized to avoid carmelization, which would introduce variability into the optical density of the medium] containing from 0 mM to 2.5 mM cAMP (or either 0.5 mM or 1.0 mM cGMP). This was to repress expression of the fbp1-ura4 reporter prior to exposure of cells to 5FOA medium. Cells were grown at 30° C. to exponential phase (approximately 10^7 cells/ml). Cells were collected by centrifugation and resuspended in 5FOA medium, and 25 μl were transferred to 384-well microtiter dishes (untreated, with flat clear bottoms) that had been pre-filled with 25 μl 5FOA medium and pre-pinned with 100 nl of compounds (stock solutions were generally 10 mM). Starting cell concentrations ranged from 0.5×10^5 to 4×10^5 cells/ml depending on the screening strain. […] Other positive control dishes contained 5 mM cAMP in the 5FOA medium for PDEs that lack appropriate control compounds. Cultures were grown for 48 hours at 30° C., sealed in an airtight container with moist paper towels to prevent evaporation. Optical densities (OD600) of cultures were measured using a microplate reader. Bioinformatic analysis of the results to determine composite Z scores was performed as previously described (1, 3).

For assay [3], the target named is T2, PDE4A10 (Homo sapiens, UniProt P27815).
T2 construct: made in house; host or cells: E. coli
Description: in vitro enzyme assay, E. coli expressed and purified PDE4A10. Conditions: read-out: IC50 (or AC200), PDE4A10. The assay is classed as biochemical.

Assay [4] addresses T3, PDE4D2-CAT (Homo sapiens, UniProt Q08499).
T3 construct: 86-413; made in house; host or cells: E. coli
Description: in vitro enzyme assay, catalytic fragment of PDE4D2 (residues 86-413). Conditions: catalytic fragment; AC200 = [Compound] that doubles PDE activity; read-out: IC50 (or AC200), PDE4D2-CAT. The assay is classed as biochemical.

Assay [5] concerns the target T1, PDE4B2. Put plainly: in vitro enzyme assay, E. coli expressed and purified PDE4B2. It counts as biochemical. The arrangement: targets used in the assays are full-length proteins (as opposed to simply the catalytic domain). Conditions: read-out: IC50 (or AC200), PDE4B2.
The target in assay [6] is T4, PDE4D2-FL (Homo sapiens, UniProt Q08499).
T4 construct: 1-507; made in house; host or cells: E. coli
Description: in vitro enzyme assay, full-length PDE4D2 (residues 1-507). The assay is classed as biochemical. Conditions: read-out: IC50 (or AC200), PDE4D2-FL.

Assay [7] has as its target PDE7A (Homo sapiens, UniProt Q13946). Put plainly: in vitro enzyme assay PDE7A. Details: made in house; host or cells: E. coli. Conditions: 2 micromolar compound; read-out: percent of PDE activity present, PDE7A. The assay is classed as biochemical.
The target of assay [8] is PDE4D (Homo sapiens, UniProt Q08499). Put plainly: in vitro enzyme assay PDE4D (Table 7). The assay is classed as biochemical. Conditions: 2 micromolar compound; read-out: percent of PDE activity present, PDE4D.
In assay [9] the target is PDE4A (Homo sapiens, UniProt P27815). Description: in vitro enzyme assay PDE4A (Table 7). It counts as biochemical. Conditions: 2 micromolar compound; read-out: percent of PDE activity present, PDE4A.
The target in assay [10] is PDE4B (Homo sapiens, UniProt Q07343). Put plainly: in vitro enzyme assay PDE4B (Table 7). The conditions noted are these: 2 micromolar compound; read-out: percent of PDE activity present, PDE4B. The assay is classed as biochemical.

The structures appear in SMILES notation. Read-outs that look alike come from different tables or passages of the source.

T1 sequence (Q07343 1-564 isoform Q07343-2, species assumed): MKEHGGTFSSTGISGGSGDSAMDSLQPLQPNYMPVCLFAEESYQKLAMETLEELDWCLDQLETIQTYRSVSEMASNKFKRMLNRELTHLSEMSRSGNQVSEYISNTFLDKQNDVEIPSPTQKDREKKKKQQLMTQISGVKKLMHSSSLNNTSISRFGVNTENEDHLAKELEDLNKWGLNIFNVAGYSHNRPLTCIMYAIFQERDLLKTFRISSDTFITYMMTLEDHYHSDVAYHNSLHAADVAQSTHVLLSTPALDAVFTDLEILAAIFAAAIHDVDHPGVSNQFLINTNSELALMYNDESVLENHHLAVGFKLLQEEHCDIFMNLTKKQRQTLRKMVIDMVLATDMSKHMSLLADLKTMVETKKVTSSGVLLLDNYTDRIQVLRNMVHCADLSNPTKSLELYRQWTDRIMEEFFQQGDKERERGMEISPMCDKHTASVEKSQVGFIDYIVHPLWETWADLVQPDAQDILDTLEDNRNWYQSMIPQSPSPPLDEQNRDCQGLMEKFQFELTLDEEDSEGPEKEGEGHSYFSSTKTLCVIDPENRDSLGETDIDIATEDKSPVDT
Chain of PDE7B (Q9NP56 whole entry, species assumed, the tested form may be a part): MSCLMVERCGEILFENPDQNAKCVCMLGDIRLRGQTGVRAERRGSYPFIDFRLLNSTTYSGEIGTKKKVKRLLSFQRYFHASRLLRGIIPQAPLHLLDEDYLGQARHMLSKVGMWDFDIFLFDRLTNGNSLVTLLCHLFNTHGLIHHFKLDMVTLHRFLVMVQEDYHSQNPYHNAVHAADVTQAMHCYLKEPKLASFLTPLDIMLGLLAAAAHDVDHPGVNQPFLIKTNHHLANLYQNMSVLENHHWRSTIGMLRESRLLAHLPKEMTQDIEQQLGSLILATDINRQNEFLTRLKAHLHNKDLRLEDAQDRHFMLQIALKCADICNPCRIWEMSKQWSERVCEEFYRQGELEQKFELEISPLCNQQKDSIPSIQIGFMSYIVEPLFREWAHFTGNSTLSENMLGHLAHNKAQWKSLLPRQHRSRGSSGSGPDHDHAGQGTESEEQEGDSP
T3 sequence (Q08499 388-715): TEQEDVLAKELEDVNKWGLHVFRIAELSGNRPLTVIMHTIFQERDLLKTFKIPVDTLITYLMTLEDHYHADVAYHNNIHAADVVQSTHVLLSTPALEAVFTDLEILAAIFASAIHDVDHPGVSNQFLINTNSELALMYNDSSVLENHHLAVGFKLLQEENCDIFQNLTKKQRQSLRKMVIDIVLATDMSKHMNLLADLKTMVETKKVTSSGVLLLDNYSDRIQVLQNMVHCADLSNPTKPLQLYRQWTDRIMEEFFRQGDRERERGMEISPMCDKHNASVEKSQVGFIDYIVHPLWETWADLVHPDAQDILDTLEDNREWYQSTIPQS
Chain of PDE4B (Q07343 whole entry, species assumed): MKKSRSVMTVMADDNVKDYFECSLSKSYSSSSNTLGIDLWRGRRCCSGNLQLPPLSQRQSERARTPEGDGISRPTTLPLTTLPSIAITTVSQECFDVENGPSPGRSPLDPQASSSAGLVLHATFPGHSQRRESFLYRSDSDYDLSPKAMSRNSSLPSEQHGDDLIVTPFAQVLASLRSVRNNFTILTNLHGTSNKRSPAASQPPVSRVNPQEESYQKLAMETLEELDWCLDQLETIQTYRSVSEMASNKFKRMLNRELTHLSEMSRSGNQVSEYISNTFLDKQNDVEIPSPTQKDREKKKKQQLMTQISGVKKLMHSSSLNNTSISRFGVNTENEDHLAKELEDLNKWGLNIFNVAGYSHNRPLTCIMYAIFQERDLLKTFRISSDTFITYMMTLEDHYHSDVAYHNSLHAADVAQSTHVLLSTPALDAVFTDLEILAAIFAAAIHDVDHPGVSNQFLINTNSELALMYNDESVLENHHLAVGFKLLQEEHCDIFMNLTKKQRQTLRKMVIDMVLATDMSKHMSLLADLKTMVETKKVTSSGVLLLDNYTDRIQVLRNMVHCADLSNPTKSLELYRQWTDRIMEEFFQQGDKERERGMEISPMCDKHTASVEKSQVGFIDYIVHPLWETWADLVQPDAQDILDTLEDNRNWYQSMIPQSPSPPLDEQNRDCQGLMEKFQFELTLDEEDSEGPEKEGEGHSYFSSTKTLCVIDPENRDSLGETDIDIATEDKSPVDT
T2 sequence (P27815 1-825 isoform P27815-6, species assumed): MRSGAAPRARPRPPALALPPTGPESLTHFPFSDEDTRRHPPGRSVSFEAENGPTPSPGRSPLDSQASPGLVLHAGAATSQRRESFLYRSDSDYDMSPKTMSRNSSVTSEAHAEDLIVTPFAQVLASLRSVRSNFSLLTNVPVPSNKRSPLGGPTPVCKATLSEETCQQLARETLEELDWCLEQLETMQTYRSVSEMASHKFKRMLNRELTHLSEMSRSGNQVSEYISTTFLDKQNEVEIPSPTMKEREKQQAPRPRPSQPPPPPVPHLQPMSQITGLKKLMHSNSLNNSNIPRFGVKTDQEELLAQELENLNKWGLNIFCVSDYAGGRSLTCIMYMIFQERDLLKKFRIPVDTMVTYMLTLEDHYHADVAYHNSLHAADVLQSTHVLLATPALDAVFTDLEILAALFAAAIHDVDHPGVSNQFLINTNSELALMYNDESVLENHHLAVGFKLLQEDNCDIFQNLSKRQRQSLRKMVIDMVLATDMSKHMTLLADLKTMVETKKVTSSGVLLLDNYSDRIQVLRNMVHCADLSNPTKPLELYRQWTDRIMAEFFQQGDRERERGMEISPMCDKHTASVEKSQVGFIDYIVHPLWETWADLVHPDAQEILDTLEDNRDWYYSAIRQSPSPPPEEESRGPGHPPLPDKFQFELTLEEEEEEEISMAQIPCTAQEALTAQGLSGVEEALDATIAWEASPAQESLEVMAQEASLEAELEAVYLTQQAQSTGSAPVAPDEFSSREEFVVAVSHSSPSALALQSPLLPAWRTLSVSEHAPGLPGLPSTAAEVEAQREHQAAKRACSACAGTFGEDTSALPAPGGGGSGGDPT
Chain of PDE7A (Q13946 whole entry): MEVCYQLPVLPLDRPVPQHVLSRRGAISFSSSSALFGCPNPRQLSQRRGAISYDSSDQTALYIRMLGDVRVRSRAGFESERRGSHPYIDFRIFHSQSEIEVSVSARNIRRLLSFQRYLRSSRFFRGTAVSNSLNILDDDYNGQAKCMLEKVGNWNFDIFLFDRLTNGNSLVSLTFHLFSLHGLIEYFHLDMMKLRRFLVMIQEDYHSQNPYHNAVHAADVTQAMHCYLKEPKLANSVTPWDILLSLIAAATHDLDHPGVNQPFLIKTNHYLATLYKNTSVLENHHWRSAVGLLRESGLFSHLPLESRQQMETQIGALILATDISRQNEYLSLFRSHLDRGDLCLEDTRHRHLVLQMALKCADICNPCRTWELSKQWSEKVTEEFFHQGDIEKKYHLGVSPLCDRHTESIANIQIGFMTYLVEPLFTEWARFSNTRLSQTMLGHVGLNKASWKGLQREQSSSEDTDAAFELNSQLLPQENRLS
T4 sequence (Q08499 303-809): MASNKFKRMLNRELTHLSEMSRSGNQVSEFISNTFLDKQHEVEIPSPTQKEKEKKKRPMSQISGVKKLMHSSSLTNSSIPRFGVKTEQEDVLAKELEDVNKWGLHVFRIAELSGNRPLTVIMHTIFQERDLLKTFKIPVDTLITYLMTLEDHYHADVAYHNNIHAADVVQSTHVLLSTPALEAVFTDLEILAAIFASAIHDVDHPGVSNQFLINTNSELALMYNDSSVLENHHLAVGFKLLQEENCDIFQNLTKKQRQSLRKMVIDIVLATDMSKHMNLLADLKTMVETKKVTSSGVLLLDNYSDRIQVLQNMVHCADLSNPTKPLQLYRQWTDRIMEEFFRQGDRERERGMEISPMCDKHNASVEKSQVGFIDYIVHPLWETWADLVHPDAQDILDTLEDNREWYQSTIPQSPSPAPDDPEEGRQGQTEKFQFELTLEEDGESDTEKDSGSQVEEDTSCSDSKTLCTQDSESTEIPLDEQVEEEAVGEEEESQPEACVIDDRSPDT
Chain of PDE4A (P27815 whole entry, species assumed): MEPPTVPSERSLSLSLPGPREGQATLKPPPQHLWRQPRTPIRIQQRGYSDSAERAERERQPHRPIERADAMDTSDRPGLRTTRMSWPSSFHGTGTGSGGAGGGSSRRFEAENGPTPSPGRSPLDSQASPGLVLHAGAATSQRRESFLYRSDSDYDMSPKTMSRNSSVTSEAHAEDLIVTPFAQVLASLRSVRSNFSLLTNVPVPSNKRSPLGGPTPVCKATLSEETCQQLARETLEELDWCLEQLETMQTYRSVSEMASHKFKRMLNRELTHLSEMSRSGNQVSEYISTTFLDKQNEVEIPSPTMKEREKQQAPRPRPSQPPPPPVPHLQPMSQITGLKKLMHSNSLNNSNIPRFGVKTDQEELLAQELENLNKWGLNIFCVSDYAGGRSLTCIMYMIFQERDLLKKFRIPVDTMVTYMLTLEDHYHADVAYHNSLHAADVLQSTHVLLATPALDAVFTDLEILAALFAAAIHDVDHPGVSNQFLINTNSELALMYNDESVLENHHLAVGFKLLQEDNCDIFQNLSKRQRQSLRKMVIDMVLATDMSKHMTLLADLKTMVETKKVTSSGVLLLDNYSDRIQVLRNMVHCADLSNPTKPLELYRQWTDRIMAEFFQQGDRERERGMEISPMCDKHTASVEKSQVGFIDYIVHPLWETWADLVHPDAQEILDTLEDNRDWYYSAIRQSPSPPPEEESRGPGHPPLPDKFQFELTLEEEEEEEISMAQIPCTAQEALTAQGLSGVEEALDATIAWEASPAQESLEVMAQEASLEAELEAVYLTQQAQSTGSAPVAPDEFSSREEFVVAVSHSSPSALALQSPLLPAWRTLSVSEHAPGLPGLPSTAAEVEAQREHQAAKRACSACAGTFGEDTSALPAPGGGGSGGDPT

Turning to `CCC1CCc2c(sc3ncnc(N4CCOCC4)c23)C1` (stereo not drawn) [BC33], in assay [1] (value marked (m), read-out: ED50 for 5FOA growth assays, PDE4B2 (m)), the EC50 was found to be 1700 nM.
On to `CCN(CC)c1ncnc2sc3c(c12)CCCC3` [BC44], for which the EC50 in [2] was 2100 nM.
As for `Cc1sc2ncnc(Nc3ccccc3)c2c1C` [BC64], the EC50 is over 200000 nM in [2] and over 200000 nM in assay [1] (read-out: ED50 for 5FOA growth assays, PDE4B2).
Broadly, the IC50 is the concentration needed to halve the response being measured. As for `N#Cc1sc2sc(C#N)c(-c3ccco3)c2c1N` [Compound 30], the IC50 in assay [3] was over 2000 nM; in assay [4], under 100 nM; in assay [5], about 2000 nM; in assay [6], over 2000 nM.
Turning to `Cc1c(C(=O)Nc2ccc(F)cc2F)sc2ncnc(N(C)c3ccccc3)c12` [Compound 58-9], the remaining activity at 2 µM in assay [7] was 52%; in [8], 77%; in assay [9], 84%; in assay [10], 72%.
